Results from PMC10894853, “Distribution and elimination kinetics of midazolam and metabolites after post-resuscitation care: a prospective observational study” (Scientific Reports, 2024).

Experiments:
[1] = Non-compartmental pharmacokinetics of midazolam and metabolites in plasma after discontinuation of MDZ infusion (LC-MS/MS); format: in vivo, human; details: for AUClast / AUCinf: relative concentration; for MRT inf: read-out: MRTinf (mean residence time); for MRT last: read-out: MRTlast (mean residence time)
Description: The PK parameters were obtained using a non-compartmental method with Phoenix WinNonlin (version 8.3.5; Certara, USA). […] The AUC from time 0 to infinity (AUCinf) was calculated as AUClast + Clast/λz, where Clast is the last measurable concentration and λz is the elimination rate constant. The mean residence time was calculated as […]. The estimated t1/2 was calculated from λz based on a previously reported equation[12].
All samples were immediately frozen and stored at –70 ℃ after centrifugation with 3,000 rpm for 10 min and then sent to the Nutrition Food Microbiology Laboratory at Chungnam National University (http://nfml.kr/) to determine the concentration of midazolam and its metabolites using liquid chromatography with tandem mass spectrometry analysis.
The sample preparation method was performed as previously described with some modifications. A 20 µL of sample was mixed with 180 µL of 80% methanol, followed by protein precipitation at 4 °C for 30 min. Subsequently, the supernatant was harvested and added to 1800 µL of distilled water. The pre-treated samples were loaded onto an Oasis HLB Vac RC cartridge (30 mg, 20 cc, Waters) that had been preconditioned with 6 mL of methanol and 6 mL of distilled water. The cartridge was washed with 6 mL distilled water and sequentially eluted with methanol (4 mL). The eluted samples were dried using an evaporator and resuspended with 0.2 mL of methanol for analysis.

[2] = cited from earlier work
[3] = Distribution (proportion of total relative concentration) of midazolam and metabolites in plasma after discontinuation of MDZ infusion; details: range over sampling times 0 to 24 h
Description: Serum samples for analyzing the plasma concentration of MDZ and its metabolites were obtained immediately (baseline) and at 4, 8, 12, and 24 h after the discontinuation of MDZ infusion.
The distribution of each compound was assessed by calculating its relative concentration as a ratio to the total sum of relative concentrations at each sampling time.

[4] = Awakening time and estimated midazolam concentration at awakening (simple linear regression); format: in vivo, human
Description: The primary outcome of this study was the distribution and elimination of MDZ and its metabolites over 24 h following the discontinuation of MDZ infusion after targeted temperature management (33 or 36℃). The secondary outcome was the association between the PK parameters and awakening time in a subgroup of patients who experienced neurological recovery.
We investigated the PK parameters for all compounds in each individual. […] Among these four patients, the mean of the estimated MDZ concentration was 16.8 ng/mL.
Figure 4 Simple linear regression analysis between the absolute concentration of midazolam and awakening time in the subgroup of awakened patients after post-resuscitation care (n = 7). […] The regression line (grid line) is followed the regression equation: Y = − 4.506 × X + 105.5.

[5] = after discontinuation of MDZ infusion, mean ± SD
[6] = plasma, 0 to 24 h after discontinuation of MDZ infusion, arithmetic mean ± SD
[7] = plasma, time 0 to infinity after discontinuation of MDZ infusion, mean ± SD
[8] = human, plasma, intravenous, after discontinuation of MDZ infusion, mean ± SD

Molecule | MRTinf (mean residence time) [1, 5] [h] | MRTlast (mean residence time) [1, 5] [h] | t1/2 (elimination half-life) [1, 5] [h] | AUClast [1, 6] | AUCinf [1, 7] | also measured
midazolam glucuronide [MDZ-Glu] | 16.2 ± 24.1 | 5.8 ± 1.9 |  |  |  | 
dihydroxymidazolam [Di-OH-MDZ] | 21.0 ± 19.8 | 6.4 ± 2.5 | 14.5 ± 13.7 | 38.2 ± 49.8 h*ppm | 56.2 ± 52.1 h*ppm | 
di-hydroxymidazolam glucuronide [Di-OH-MDZ-Glu] | 19.2 ± 13.0 | 6.4 ± 2.1 | 14.3 ± 9.6 | 187.4 ± 272.0 h*ppm | 200.2 ± 307.1 h*ppm | 
O=C(O)[C@H]1O[C@@H](OCc2ncc3n2-c2ccc(Cl)cc2C(c2ccccc2F)=NC3)[C@H](O)[C@@H](O)[C@@H]1O [1-OH-MDZ-Glu, 1-hydroxymidazolam glucuronide] | 21.8 ± 26.8 | 6.8 ± 2.4 | 15.4 ± 19.9 | 9193.0 ± 13,958.4 h*ppm | 14,027.8 ± 15,486.2 h*ppm | Pharmacological potency (sedation) [2]: < 6%; Potency for sedation [2]: 6–10%
OCc1ncc2n1-c1ccc(Cl)cc1C(c1ccccc1F)=NC2 [1-OH-MDZ, 1-hydroxymidazolam] | 10.5 ± 5.2 | 6.0 ± 2.3 | 8.1 ± 4.9 | 1117.2 ± 1643.5 h*ppm | 1419.1 ± 1845.5 h*ppm | Potency for sedation effect [2]: 60–63%; Proportion in total concentration [3]: 3.3–4.2%
Cc1ncc2n1-c1ccc(Cl)cc1C(c1ccccc1F)=NC2O (stereo not drawn) [4-OH-MDZ, 4-hydroxymidazolam] |  |  |  | 172.5 ± 268.0 h*ppm | 204.7 ± 294.8 h*ppm | Potency for sedation [2]: 0–2%; MRT inf [1, 8]: 10 ± 4.8 h; MRT last [1, 8]: 5.6 ± 1.5 h; half-life ([1]; human, plasma, intravenous, after discontinuation of MDZ infusion, mean ± SD, read-out: t1/2 (elimination half-life) (converted)): 7.3 ± 3.8 h
Cc1ncc2n1-c1ccc(Cl)cc1C(c1ccccc1F)=NC2 [MDZ, midazolam] |  |  | 6.2 ± 3.9 |  |  | concentration at 16.6 h ([4]; human, plasma, intravenous, 0.15 mg/kg/h, from regression equation Y = − 4.506 × X + 105.5 at 16.6 h, awakened patients n = 7, read-out: Estimated concentration of midazolam at the subgroup awakening time): 30.7 ng/mL; Mean of the estimated MDZ concentration at awakening time ([4]; individual regression analysis, four out of seven awakened patients): 16.8 ng/mL; Awakening time in the subgroup after discontinuation of the midazolam infusion ([4]; subgroup of awakened patients n = 7): 16.6 h; Awaken time after discontinuation of midazolam intravenous infusion ([4]; subject #1): 9.6 h; Estimated midazolam concentration at awaken time ([4]; subject #1): 32.3 ng/mL; Awaken time after discontinuation of midazolam intravenous infusion ([4]; subject #2): 10.4 h; Estimated midazolam concentration at awaken time ([4]; subject #2): 20.8 ng/mL; Awaken time after discontinuation of midazolam intravenous infusion ([4]; subject #3): 9.6 h; Estimated midazolam concentration at awaken time ([4]; subject #3): 2.2 ng/mL; Awaken time after discontinuation of midazolam intravenous infusion ([4]; subject #4): 7.1 h; Estimated midazolam concentration at awaken time ([4]; subject #4): 11.9 ng/mL; Proportion in total concentration [3]: 21.2–38.4%; AUC(0-t) ([1]; human, intravenous, plasma, 0 to 24 h after discontinuation of MDZ infusion, absolute concentration, arithmetic mean ± SD): 1770 ± 2740 ng·h/mL; AUC(0-inf) ([1]; human, intravenous, plasma, time 0 to infinity after discontinuation of MDZ infusion, absolute concentration, mean ± SD): 2110 ± 3050 ng·h/mL; MRT inf [1, 8]: 8.2 ± 5.2 h; MRT last [1, 8]: 4.9 ± 1.6 h
Cc1ncc2n1-c1ccc(Cl)cc1C(c1ccccc1F)=NC2O[C@@H]1O[C@H](C(=O)O)[C@@H](O)[C@H](O)[C@H]1O (stereo partly drawn) [4-OH-MDZ-Glu, 4-hydroxymidazolam glucuronide] | 7.9 ± 1.4 | 6.4 ± 2.2 | 5.4 ± 0.7 | 29.8 ± 24.4 h*ppm | 33.3 ± 34.3 h*ppm | 
